Target: T1, ALR1 (Bos taurus, UniProt Q3ZCJ2)
T1 construct: The calf’s kidneys were obtained after slaughtering and dissection; from tissue; host or cells: calf kidneys
Assay: ALR1 enzyme inhibition assay (enzyme extracted from calf kidneys)
Format: biochemical, bovine
Conditions: bovine kidney ALR1, 100 µM inhibitor; read-out: I (%, 100 µM) (ALR1)
Experimental: Compounds 3a-o were tested against ALR2 to evaluate their inhibitory potential against aldose reductase whereas selectivity was determined via performing ALR1 inhibition assay. For the enzyme inhibition assay, ALR2 and ALR1 were extracted from bovine sources (ALR2 from eyes and ALR1 from kidneys). Moreover, inhibitions studies were also carried out on the expressed ALR2 (human AKR1B1) and inhibition data for ALR2- bovine source and expressed enzyme was compared and analyzed. The protocols for enzyme extraction and expression in the bacterial system are included in the section of “Supporting information”. […] For the purpose of comparison and validation of enzyme inhibition data, these compounds were tested against human AKR1B1 (hAKR1B1) expressed in E. coli BL21 (DE3). We found a similar pattern of enzyme inhibition for the synthesized compounds against extracted enzyme (ALR2) as well as expressed enzyme (hAKR1B1).
For the determination of enzyme activity of ALR1 and ALR2, 100 µL of reaction mixture was composed of 20 µL of buffer (100 mM sodium phosphate, pH 6.2), 30 µL of enzyme extract, 20 µL of substrate (10 mM), 20 µL of cofactor (0.1 mM of NADPH) and 10 µL of test compound (1 mM)[6],[21]. The reaction mixture without cofactor was incubated at 32°C for 10 min, then the enzymatic reaction was initiated with the addition of NADPH and monitored for 5 minutes. Similar protocols were followed for ALR1 and ALR2, however the substrate was different for each enzyme, with sodium-D-glucoronate and DL-glyceraldehyde used as the substrates for the ALR1 and ALR2 assays, respectively. […] In addition, similar protocols were adopted for human AKR1B1 that was expressed in E. coli BL21 (DE3), though the determined protein concentration was 12 µg/mL for the expressed enzyme. Detailed protocols for the preparation of ALR1, ALR2 and expressed human AKR1B1 can be found in the supporting information.
The newly synthesized N-substitute thiosemicarbazones (3a-o) were dissolved in 100% DMSO and diluted with deionized water, keeping the DMSO concentration equal to 0.1% in the assay.
The calf’s kidneys were obtained after slaughtering and dissection, dissolved in 3 volumes of sodium phosphate buffer (10mM) which is composed of 2.0 mM EDTA, 2.5mM β-mercaptoethanol, 0.25M solution of sucrose at pH 7.25. First, the homogenisation was carried out then centrifugation of the homogenate was performed at 12000 x g at 0-2^◦C for 30 minutes. The precipitates containing insoluble lipids were discarded and the collected supernatant layer was treated with 40% saturation of ammonium sulphate. This liquid mixture was subjected to centrifugation at 11000 x g at 0-2^◦C for 30 minutes. Now, precipitates were again discarded and supernatant was collected and treated with 50% ammonium sulphate and procedure was repeated in the same manner as in previous step. In the last step, the saturation of ammonium sulphate was increased up to 75% and supernatant was subjected to same parameter of centrifugation. At this final step, precipitates were obtained and supernatant layer was discarded. The obtained material of precipitates was composed of ALR1and redissolved in initial buffer that was used during homogenisation. Finally, material was dialyzed overnight with same buffer system. The dialyzed fractions containing ALR1 were stored at -80^◦C for further use[5].

T1 sequence (Q3ZCJ2 whole entry): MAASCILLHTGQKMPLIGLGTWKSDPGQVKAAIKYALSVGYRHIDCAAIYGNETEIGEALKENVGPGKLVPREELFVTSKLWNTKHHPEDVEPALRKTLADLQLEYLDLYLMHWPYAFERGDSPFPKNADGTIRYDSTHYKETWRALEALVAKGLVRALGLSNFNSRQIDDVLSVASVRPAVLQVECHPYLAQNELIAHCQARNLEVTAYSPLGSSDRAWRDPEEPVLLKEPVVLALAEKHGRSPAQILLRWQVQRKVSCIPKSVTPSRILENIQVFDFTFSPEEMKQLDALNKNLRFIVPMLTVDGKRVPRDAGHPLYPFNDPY

inhibition at 100 µM: 4.27 to 26.2%
SMILES: CC(C)(C)c1cc(C=NNC(=S)Nc2ccccc2F)c(O)c(C(C)(C)C)c1 [Compound 3m, 2-(3,5-di-tert-butyl-2-hydroxybenzylidene)-N-(2-fluorophenyl)hydrazine carbothioamide]

Source: paper PMC8986850, “Development and exploration of novel substituted thiosemicarbazones as inhibitors of aldose reductase via in vitro analysis and computational study” (Scientific Reports, 2022)
